“Also recorded” adds a separate entry of the source.
Legend:
[1] = system: L1210/0 cells; experiment: In vivo antitumor activity, L1210/0 (Example 6, Table 11); design: species or system male BDF1 mice; details: for % T/C at optimal dose: L1210/0 i.p., drug i.p. days 1, 5, 9, median survival, optimal dose (mg/kg/inj): 12, 13, 14: 25, 15: 12.5, Cisplatin: 5; for Optimal Dose: i.p., dose levels 1.56 to 200 mg/kg tested, L1210/0, L1210/DDP and M5076
Experimental: (§1) Cisplatin-sensitive L1210/0 or cisplatin-resistant L1210/DDP cells (1×10^5 cells/mouse) were injected intraperitoneally in male BDF1 mice on day 0, and the drug, in an aqueous medium, administered intraperitoneally at dose levels ranging from 1.56 to 200 mg/kg on days 1, 5 and 9. The median life spans of control (C) and treated (T) animals were determined, and the percent T/C at the optimal dose calculated as an indicator of antitumor efficacy. The complexes were also evaluated against the M5076 reticulosarcoma. […]. The tumor volumes were measured periodically and efficacy at the optimal dose reported as tumor growth delay (TGD), which is defined as the time difference in days for the tumor in control and treated mice to reach a specified volume.
(§2) BDF1 mice inoculated i.p. with 10^5 L1210 Leukemia cells on day 0 wer
administered the drug on days 1, 5, and 9. […]

[2] = system: M5076 Tumor Model; experiment: In vivo antitumor activity against M5076 tumor model (Example 3, Table 4); design: species or system BDF1 mice; TGD (Tumor Growth Delay): unit not given beside the values; details: for MTD (Maximum Tolerated Dose) / TGD (Tumor Growth Delay): M5076 s.c., BDF1 mice, i.p. days 7, 14, 21, 28; for TGD (Tumor Growth Delay): at optimal dose/MTD
Experimental: (§3) Each of the platinum complexes was evaluated in vivo against L1210/0, L1210/DDP, L1210/DACH and M5076 cells at several dose levels. […] The data at optimal doses are reproduced in Tables 4-7 along with data for the cyclobutanedicarboxylato, aquasulfato, methylmalonato and tartronato analogs (compounds 1-4 in Table 1).
BDF1 mice inoculated s.c. with 10' M5076 cells on day 0 and drug
administered i.p on days 7, 14, 21, and 28. MTD = Maximum Tolerated Dose
(mg/kg/injection), TGD = Tumor Growth Delay

[3] = system: L1210/0 cells; experiment: MTT cytotoxicity, L1210/0 (Example 5, Table 10); type: cell-based, murine; details: 72 hr (3 days) continuous exposure
[4] = system: L1210/DACH cells; experiment: MTT cytotoxicity, tetraplatin-resistant L1210/DACH (Example 5, Table 10); type: cell-based, murine; details: 72 hr (3 days) continuous exposure
[5] = system: L1210/DDP cells; experiment: MTT cytotoxicity, cisplatin-resistant L1210/DDP (Example 5, Table 10); type: cell-based, murine; details: 72 hr (3 days) continuous exposure
[6] = system: M5076 reticulosarcoma; experiment: In vivo antitumor activity, M5076 reticulosarcoma (Example 6, Table 11); design: species or system male BDF1 mice; details: M5076 s.c.; drug i.p. days 5, 9, 13, 17; optimal dose (mg/kg/inj): 12: 25; Cisplatin: 5
Experimental: as §1, §2
(§4) administered the drug on days 1, 5, and 9. BDF1 mice inoculated s.c. with
(§5) 10^7 M5076 cells on day 0 received the drug on days 5, 9, 13, and 17.
(§6) % T/C = [(median survival time of treated)/(median survival time of
(§7) control)] × 100. TGD = tumor growth delay.

[7] = system: A2780 cells; experiment: Modified MTT cytotoxicity assay, human ovarian A2780 (Example 2, Table 3); type: cell-based; details: continuous exposure (5 days in table footnote; 7 days in text)
[8] = system: L1210/DDP cells; experiment: In vivo antitumor activity, cisplatin-resistant L1210/DDP (Example 6, Table 11); design: species or system male BDF1 mice; details: L1210/DDP i.p.; drug i.p. days 1, 5, 9; median survival; optimal dose (mg/kg/inj): 12: 25; Cisplatin: 5
Experimental: as §1, §2, §4, §5, §6, §7

[9] = system: Murine Leukemia L1210/DACH; experiment: In vivo antitumor activity against murine leukemia L1210/DACH (Example 3, Table 6); design: species or system BDF1 mice; details: for MTD (Maximum Tolerated Dose) / % T/C (mean survival time of treated/mean survival time of control) × 100: L1210/DACH i.p., BDF1 mice, drug i.p. days 1, 5, 9; for % T/C (mean survival time of treated/mean survival time of control) × 100: at optimal dose/MTD
Experimental: as §3
(§8) BDF1 mice inoculated i.p. with 10^5 L1210 Leukemia cells on day 0 and
(§9) drug administered i.p. on days 1, 5, and 9. MTD = Maximum Tolerated Dose
(§10) (mg/kg/injection), % T/C = (mean survival time of treated/mean survival
(§11) time of control) × 100. Figures in parenthesis indicated long term

[10] = system: Murine Leukemia 1210/DDP; experiment: In vivo antitumor activity against murine leukemia L1210/DDP (Example 3, Table 7); design: species or system BDF1 mice; details: for % T/C (mean survival time of treated/mean survival time of control) × 100: at optimal dose/MTD
Experimental: as §3, §8
drug administed i.p. on days 1, 5, and 9. MTD = Maximum Tolerated Dose
as §10, §11

[11] = system: L1210/0 cells; experiment: Modified MTT cytotoxicity assay, murine leukemia L1210/0 (Example 2, Table 3); type: cell-based; details: for IC50: L1210/0, MTT, continuous exposure 5 days; for effectiveness against murine versus human cells (in words): L1210/0 versus A2780
[12] = system: Murine Leukemia L1210/0; experiment: In vivo antitumor activity against murine leukemia L1210/0 (Example 3, Table 5); design: species or system BDF1 mice; details: for MTD (Maximum Tolerated Dose) / % T/C (mean survival time of treated/mean survival time of control) × 100 / long term survivors/no. tested: L1210/0 i.p., BDF1 mice, drug i.p. days 1, 5, 9; for % T/C (mean survival time of treated/mean survival time of control) × 100: at optimal dose/MTD; for long term survivors/no. tested: figures in parenthesis
Experimental: as §3
BDF1 mice inoculated i.p. with 10^5 L1210 Leukemiacells on day 0 and
as §9, §10
time of control) × 100. Figures in parenthesis indicate long term

[13] = Renal and hematological toxicity, single i.p. dose (Table 8); details: for BUN d.5: blood urea nitrogen, saline control 20.9; for BUN d.5 / Survivors on d.14 / Body Wt. on d.5: single i.p. dose (mg/kg): 1,4-DACH-Pt^II CBDCA 300, 1,4-DACH-Pt^IV Cl4 8.0, Tetraplatin 8.0, Cis-platin 12.0, Carboplatin 150; for Body Wt. on d.5: mean, S.D. less than 20%; for myelotoxicity / myelosuppression (in words): leucopenia
[14] = L1210/DDP i.p., BDF1 mice, drug i.p. days 1, 5, 9

Compound	% T/C at optimal dose [1]	Optimal Dose [1]	MTD (Maximum Tolerated Dose) [2]	TGD (Tumor Growth Delay) [2]	IC50 [3]	IC50 [4]	IC50 [5]	IC50 [7]	antitumor activity in vivo against L1210/DACH (in words) [9]	MTD (Maximum Tolerated Dose) [9]	% T/C (mean survival time of treated/mean survival time of control) × 100 [9]	MTD (Maximum Tolerated Dose) [10, 14]	% T/C (mean survival time of treated/mean survival time of control) × 100 [10, 14]	IC50 [11]	MTD (Maximum Tolerated Dose) [12]	% T/C (mean survival time of treated/mean survival time of control) × 100 [12]	also measured
N.N.[Cl][Pt][Cl] [Cis-platin, cis-diaminedichloroplatinum(II), reference compound]	218%	5 mg/kg/inj	5.0 mg/kg/injection	23.1	200 nM	1910 nM	32800 nM	360 nM	minimally sensitive to cis-platin	5.0 mg/kg/injection	127%	5.0 mg/kg/injection	100%	230 nM	5.0 mg/kg/injection	218%	TGD (tumor growth delay) at optimal dose [6]: 16.0 days; % T/C at optimal dose [8]: 110%; effectiveness against murine versus human cells (in words) [11]: more effective against murine than human cells
NC1CCC(N)CC1.[Cl][Pt]([Cl])([Cl])[Cl] (stereo not drawn) [Compound 7, Cis-1,4-Diaminocyclohexanetetrachloroplatinum(IV)]	–	–	3.1 mg/kg/injection	18.74	–	–	–	90 nM	good activities; also recorded: good activity	3.1 mg/kg/injection	146%	3.1 mg/kg/injection	170%	120 nM	3.1 mg/kg/injection	335%	antitumor activity in vivo against L1210/DDP (in words) [10]: good activities; also recorded: comparable or slightly greater activity; long term survivors/no. tested ([10]; L1210/DDP i.p., BDF1 mice, drug i.p. days 1, 5, 9, figures in parenthesis): 1/5; BUN d.5 [13]: 21.3 mg %; Survivors on d.14 [13]: 4/5; Body Wt. on d.5 [13]: 89 % on control; nephrotoxicity (in words) ([13]; single i.p. dose, BUN): did not show any indication of nephrotoxicity; myelotoxicity / myelosuppression (in words) ([13]; single i.p. dose): did not show any indication of nephrotoxicity or myelotoxicity; antitumor activity in vivo against L1210/0 (in words) [12]: excellent activity; also recorded: comparable or slightly greater activity; long term survivors/no. tested [12]: 2/5
CC(=O)[O][Pt]([Cl])([Cl])[O]C(C)=O.N[C@@H]1CCCC[C@H]1N [Compound 12, (R,R-1,2-DACH)PtCl2 trans(acetate)2]	276%	25 mg/kg/inj	–	–	220 nM	2300 nM	700 nM	–	–	–	–	–	–	–	–	–	TGD (tumor growth delay) at optimal dose [6]: 18.3 days; % T/C at optimal dose [8]: 144%
CC(=O)[O][Pt]([Cl])([Cl])[O]C(C)=O.N[C@H]1CCCC[C@@H]1N [Compound 13, (S,S-1,2-DACH)PtCl2 trans-(acetate)2]	265%	25 mg/kg/inj	–	–	880 nM	4200 nM	7000 nM	–	–	–	–	–	–	–	–	–	–
CC(=O)[O][Pt]([Cl])([Cl])[O]C(C)=O.NC1CCCCC1N [Compound 14, (cis-1,2-DACH)PtCl2 trans(acetate)2]	171%	25 mg/kg/inj	–	–	3000 nM	20900 nM	115000 nM	–	–	–	–	–	–	–	–	–	–
N[C@@H]1CCCC[C@H]1N.O=C([O][Pt]([Cl])([Cl])[O]C(=O)C(F)(F)F)C(F)(F)F [Compound 15, (R,R-1,2-DACH)PtCl2 trans(trifluoroacetate)2]	241%	12.5 mg/kg/inj	–	–	100 nM	1720 nM	850 nM	–	–	–	–	–	–	–	–	–	–
N[C@@H]1CCCC[C@H]1N.[Cl][Pt+2]([Cl])([Cl])[Cl] [Tetraplatin, reference compound]	–	–	3.1 mg/kg/injection	11.8	110 nM	5300 nM	440 nM	200 nM	resistant to tetraplatin	3.1 mg/kg/injection	89%	3.1 mg/kg/injection	143%	110 nM	3.1 mg/kg/injection	310%	antitumor properties against M5076 (in words) ([2]; M5076): the least active; antitumor activity in vivo against L1210/DDP (in words) [10]: active; potency relative to cis-platin ([11]; L1210/0 and A2780 tumor lines, more potent than cis-platin): 2-3 fold; effectiveness against murine versus human cells (in words) [11]: more effective against murine than human cells; BUN d.5 [13]: 17.2 mg %; Survivors on d.14 [13]: 5/5; Body Wt. on d.5 [13]: 94 % on control; myelotoxicity / myelosuppression (in words) ([13]; single i.p. dose): myelosuppressive; antitumor activity in vivo against L1210/0 (in words) [12]: active; long term survivors/no. tested [12]: 2/5

From patent publication US5434256A, “Diamine platinum complexes as antitumor agents” (priority 1994, dated 1995)
